From PubChem BioAssay (NCI)
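Grown in 96-well plates, cells were treated for 48 hours with each compound at five concentrations. Insufficient inhibition: endpoint recorded as highest concentration tested. GI50: concentration for 50% inhibition of growth. Definition used: TGI = concentration required for complete inhibition of growth.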

How the values were obtained:
Experiment in all cases: growth of human tumour cells (NCI), 48 h
SK-MEL-2 melanoma = system: SK-MEL-2 melanoma
MALME-3M melanoma = system: MALME-3M melanoma
SF-295 CNS = system: SF-295 CNS
RPMI-8226 leukemia = system: RPMI-8226 leukemia
KM12 colon = system: KM12 colon
M14 melanoma = system: M14 melanoma
SK-OV-3 ovarian = system: SK-OV-3 ovarian
BT-549 breast = system: BT-549 breast
PC-3 prostate = system: PC-3 prostate
786-0 renal = system: 786-0 renal
SF-268 CNS = system: SF-268 CNS
HCC-2998 colon = system: HCC-2998 colon
T-47D breast = system: T-47D breast
CCRF-CEM leukemia = system: CCRF-CEM leukemia
OVCAR-3 ovarian = system: OVCAR-3 ovarian
OVCAR-5 ovarian = system: OVCAR-5 ovarian
UACC-257 melanoma = system: UACC-257 melanoma
MDA-MB-435 = system: MDA-MB-435
SN12C renal = system: SN12C renal
LOX IMVI melanoma = system: LOX IMVI melanoma
IGROV1 ovarian = system: IGROV1 ovarian
SK-MEL-28 melanoma = system: SK-MEL-28 melanoma
SW-620 colon = system: SW-620 colon
HT29 colon = system: HT29 colon
ACHN renal = system: ACHN renal
MCF7 breast = system: MCF7 breast
A498 renal = system: A498 renal
SF-539 CNS = system: SF-539 CNS
HCT-15 colon = system: HCT-15 colon
NCI-H23 lung = system: NCI-H23 lung
UO-31 renal = system: UO-31 renal
HOP-62 NSCLC = system: HOP-62 NSCLC
MDA-MB-231 breast = system: MDA-MB-231 breast
COLO 205 colon = system: COLO 205 colon
TK-10 renal = system: TK-10 renal
OVCAR-4 ovarian = system: OVCAR-4 ovarian
NCI-H522 lung = system: NCI-H522 lung
SNB-75 CNS = system: SNB-75 CNS
CAKI-1 renal = system: CAKI-1 renal
NCI-H226 lung = system: NCI-H226 lung
MOLT-4 leukemia = system: MOLT-4 leukemia
UACC-62 melanoma = system: UACC-62 melanoma
OVCAR-8 ovarian = system: OVCAR-8 ovarian
SNB-19 CNS = system: SNB-19 CNS
HCT-116 colon = system: HCT-116 colon
HS 578T breast = system: HS 578T breast
SK-MEL-5 melanoma = system: SK-MEL-5 melanoma
U251 CNS = system: U251 CNS
HL-60(TB) leukemia = system: HL-60(TB) leukemia
EKVX NSCLC = system: EKVX NSCLC
RXF 393 renal = system: RXF 393 renal
HOP-92 NSCLC = system: HOP-92 NSCLC
DU-145 prostate = system: DU-145 prostate
A549 NSCLC = system: A549 NSCLC
NCI/ADR-RES ovarian = system: NCI/ADR-RES ovarian
NCI-H460 lung = system: NCI-H460 lung

Structure (SMILES): FC(F)(F)c1cc(Nc2cccc(Oc3ccc(NC4=NCCN4)nc3)c2)ccc1Cl
- GI50 (SK-MEL-2 melanoma): 2.62 µM
- TGI (SK-MEL-2 melanoma): 6.99 µM
- GI50 (MALME-3M melanoma): 2.81 µM
- TGI (MALME-3M melanoma): 9.7 µM
- GI50 (SF-295 CNS): 1.73 µM
- TGI (SF-295 CNS): 3.37 µM
- GI50 (RPMI-8226 leukemia): 2.03 µM
- TGI (RPMI-8226 leukemia): 5.24 µM
- GI50 (KM12 colon): 2.02 µM
- TGI (KM12 colon): 4.47 µM
- GI50 (M14 melanoma): 1.73 µM
- TGI (M14 melanoma): 3.46 µM
- GI50 (SK-OV-3 ovarian): 14.8 µM
- TGI (SK-OV-3 ovarian): 32 µM
- GI50 (BT-549 breast): 3.91 µM
- TGI (BT-549 breast): 16.9 µM
- GI50 (PC-3 prostate): 1.92 µM
- TGI (PC-3 prostate): 3.73 µM
- GI50 (786-0 renal): 1.76 µM
- TGI (786-0 renal): 3.58 µM
- GI50 (SF-268 CNS): 4.14 µM
- TGI (SF-268 CNS): 17.9 µM
- GI50 (HCC-2998 colon): 1.98 µM
- TGI (HCC-2998 colon): 3.65 µM
- GI50 (T-47D breast): 2.79 µM
- TGI (T-47D breast): 11.3 µM
- GI50 (CCRF-CEM leukemia): 2.8 µM
- TGI (CCRF-CEM leukemia): 14.6 µM
- GI50 (OVCAR-3 ovarian): 2.5 µM
- TGI (OVCAR-3 ovarian): 6.33 µM
- GI50 (OVCAR-5 ovarian): 2.49 µM
- TGI (OVCAR-5 ovarian): 6.81 µM
- GI50 (UACC-257 melanoma): 3.09 µM
- TGI (UACC-257 melanoma): 9.59 µM
- GI50 (MDA-MB-435): 1.66 µM
- TGI (MDA-MB-435): 3.3 µM
- GI50 (SN12C renal): 1.87 µM
- TGI (SN12C renal): 3.82 µM
- GI50 (LOX IMVI melanoma): 1.74 µM
- TGI (LOX IMVI melanoma): 3.19 µM
- GI50 (IGROV1 ovarian): 1.83 µM
- TGI (IGROV1 ovarian): 4.22 µM
- GI50 (SK-MEL-28 melanoma): 1.94 µM
- TGI (SK-MEL-28 melanoma): 3.89 µM
- GI50 (SW-620 colon): 1.76 µM
- TGI (SW-620 colon): 3.65 µM
- GI50 (HT29 colon): 2.05 µM
- TGI (HT29 colon): 5.07 µM
- GI50 (ACHN renal): 2.91 µM
- TGI (ACHN renal): 8.66 µM
- GI50 (MCF7 breast): 1.74 µM
- TGI (MCF7 breast): 3.69 µM
- GI50 (A498 renal): 2.31 µM
- TGI (A498 renal): 9.85 µM
- GI50 (SF-539 CNS): 2.07 µM
- TGI (SF-539 CNS): 4.57 µM
- GI50 (HCT-15 colon): 1.66 µM
- TGI (HCT-15 colon): 3.32 µM
- GI50 (NCI-H23 lung): 2.53 µM
- TGI (NCI-H23 lung): 7.6 µM
- GI50 (UO-31 renal): 2.19 µM
- TGI (UO-31 renal): 8.61 µM
- GI50 (HOP-62 NSCLC): 2.22 µM
- TGI (HOP-62 NSCLC): 6.1 µM
- GI50 (MDA-MB-231 breast): 2.18 µM
- TGI (MDA-MB-231 breast): 5.02 µM
- GI50 (COLO 205 colon): 1.87 µM
- TGI (COLO 205 colon): 3.96 µM
- GI50 (TK-10 renal): 3.97 µM
- TGI (TK-10 renal): 16.1 µM
- GI50 (OVCAR-4 ovarian): 2.75 µM
- TGI (OVCAR-4 ovarian): 11 µM
- GI50 (NCI-H522 lung): 1.93 µM
- TGI (NCI-H522 lung): 4.36 µM
- GI50 (SNB-75 CNS): 1.96 µM
- TGI (SNB-75 CNS): 8.29 µM
- GI50 (CAKI-1 renal): 2.76 µM
- TGI (CAKI-1 renal): 11.3 µM
- GI50 (NCI-H226 lung): 2.06 µM
- TGI (NCI-H226 lung): 5.34 µM
- GI50 (MOLT-4 leukemia): 3.2 µM
- TGI (MOLT-4 leukemia): 14.2 µM
- GI50 (UACC-62 melanoma): 2.59 µM
- TGI (UACC-62 melanoma): 6.89 µM
- GI50 (OVCAR-8 ovarian): 2.49 µM
- TGI (OVCAR-8 ovarian): 6.73 µM
- GI50 (SNB-19 CNS): 2.74 µM
- TGI (SNB-19 CNS): 8.64 µM
- GI50 (HCT-116 colon): 1.73 µM
- TGI (HCT-116 colon): 3.19 µM
- GI50 (HS 578T breast): 1.98 µM
- TGI (HS 578T breast): 4.63 µM
- GI50 (SK-MEL-5 melanoma): 1.8 µM
- TGI (SK-MEL-5 melanoma): 3.24 µM
- GI50 (U251 CNS): 2.09 µM
- TGI (U251 CNS): 4.75 µM
- GI50 (HL-60(TB) leukemia): 2.11 µM
- TGI (HL-60(TB) leukemia): 5.53 µM
- GI50 (EKVX NSCLC): 2.07 µM
- TGI (EKVX NSCLC): 5.45 µM
- GI50 (RXF 393 renal): 2.05 µM
- TGI (RXF 393 renal): 4.94 µM
- GI50 (HOP-92 NSCLC): 1.42 µM
- TGI (HOP-92 NSCLC): 5.29 µM
- GI50 (DU-145 prostate): 2.09 µM
- TGI (DU-145 prostate): 4.44 µM
- GI50 (A549 NSCLC): 2.35 µM
- TGI (A549 NSCLC): 6.31 µM
- GI50 (NCI/ADR-RES ovarian): 2.05 µM
- TGI (NCI/ADR-RES ovarian): 4.52 µM
- GI50 (NCI-H460 lung): 1.98 µM
- TGI (NCI-H460 lung): 3.95 µM
